Test results as given in the supplement of paper PMC9663587.

How the values were obtained:
Taselisib/GDC0032 = compound: Cc1nc(-c2cn3c(n2)-c2ccc(-c4cnn(C(C)(C)C(N)=O)c4)cc2OCC3)n(C(C)C)n1 [Taselisib/GDC0032]
BSJ-01-175 = compound: CN(C)C/C=C/C(=O)Nc1ccc(O[C@@H]2CCC[C@@H](Nc3ncc(Cl)c(-c4c[nH]c5ccccc45)n3)C2)cc1 [BSJ-01-175]
Paclitaxel = compound: CC(=O)O[C@H]1C(=O)[C@@]2(C)[C@H]([C@H](OC(=O)c3ccccc3)[C@]3(O)C[C@H](OC(=O)[C@H](O)[C@@H](NC(=O)c4ccccc4)c4ccccc4)C(C)=C1C3(C)C)[C@]1(OC(C)=O)CO[C@@H]1C[C@@H]2O [Paclitaxel]
Olaparib/AZD2281 = compound: O=C(c1cc(Cc2n[nH]c(=O)c3ccccc23)ccc1F)N1CCN(C(=O)C2CC2)CC1 [Olaparib/AZD2281]
ABT-737 = compound: CN(C)CC[C@H](CSc1ccccc1)Nc1ccc(S(=O)(=O)NC(=O)c2ccc(N3CCN(Cc4ccccc4-c4ccc(Cl)cc4)CC3)cc2)cc1[N+](=O)[O-] [ABT-737]
Ipatasertib/GDC0068 = compound: CC(C)NC[C@@H](C(=O)N1CCN(c2ncnc3c2[C@H](C)C[C@H]3O)CC1)c1ccc(Cl)cc1 [Ipatasertib/GDC0068]
Flavopiridol [1] = compound: T1, CN1CC[C@H](c2c(O)cc(O)c3c(=O)cc(-c4ccccc4Cl)oc23)[C@H](O)C1 [Flavopiridol]
Doxorubicin = compound: COc1cccc2c1C(=O)c1c(O)c3c(c(O)c1C2=O)C[C@@](O)(C(=O)CO)C[C@@H]3O[C@H]1C[C@H](N)[C@H](O)[C@H](C)O1 [Doxorubicin]
Luminespib/NVP-AUY922 = compound: CCNC(=O)c1noc(-c2cc(C(C)C)c(O)cc2O)c1-c1ccc(CN2CCOCC2)cc1 [Luminespib/NVP-AUY922]
LEE011/Ribociclib = compound: CN(C)C(=O)c1cc2cnc(Nc3ccc(N4CCNCC4)cn3)nc2n1C1CCCC1 [LEE011/Ribociclib]; assay: GR value, 72 h; higher = faster growth (1 = untreated, <0 = killing);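 also: breast cancer and non-malignant breast epithelial lines, nine half-log doses, viable cells counted by Hoechst and LIVE/DEAD dye imaging versus time-zero plates and DMSO controls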
[2] = compound: CCc1cnn2c(NCc3ccc[n+]([O-])c3)cc(N3CCCC[C@H]3CCO)nc12; assay: as above
[3] = compound: CC(=O)c1c(C)c2cnc(Nc3ccc(N4CCNCC4)cn3)nc2n(C2CCCC2)c1=O; assay: as above
THZ531 = compound: CN(C)C/C=C/C(=O)Nc1ccc(C(=O)N2CCC[C@@H](Nc3ncc(Cl)c(-c4c[nH]c5ccccc45)n3)C2)cc1 [THZ531]; assay: as above
Flavopiridol [4] = compound: T1, Flavopiridol; assay: as above
YKL-5-124 = compound: C=CC(=O)Nc1ccc(C(=O)Nc2[nH]nc3c2CN(C(=O)N[C@H](CN(C)C)c2ccccc2)C3(C)C)cc1 [YKL-5-124]; assay: as above
BSJ-03-123 = compound: CC(=O)c1c(C)c2cnc(Nc3ccc(N4CCN(CCOCCOCCOCCNC(=O)COc5cccc6c5C(=O)N(C5CCC(=O)NC5=O)C6=O)CC4)cn3)nc2n(C2CCCC2)c1=O [BSJ-03-123]; assay: as above
[5] = compound: CCN1CCN(Cc2ccc(Nc3ncc(F)c(-c4cc(F)c5nc(C)n(C(C)C)c5c4)n3)nc2)CC1; assay: as above
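For GR50, 72 h in this document: breast cancer and non-malignant breast epithelial cell lines, Deep Dye Drop or Dye Drop imaging, nine half-log doses, GR normalized to time-zero plates and DMSO-only controls.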

Cell Line: MDAMB415
- GR50, 72 h (Taselisib/GDC0032): 0.293 µM
- GR50, 72 h (BSJ-01-175): 0.0616 µM
- GR50, 72 h (Paclitaxel): 0.000687 µM
- GR50, 72 h (Olaparib/AZD2281): > 10 µM
- GR50, 72 h (ABT-737): 7.69 µM
- GR50, 72 h (Ipatasertib/GDC0068): 0.0507 µM
- GR50, 72 h (Flavopiridol [1]): 0.172 µM
- GR50, 72 h (Doxorubicin): 0.00521 µM
- GR50, 72 h (Luminespib/NVP-AUY922): 0.00909 µM
- GR value (LEE011/Ribociclib; 0.001 µM): 0.708 GR
- GR value (LEE011/Ribociclib; 0.003162 µM): 0.659 GR
- GR value (LEE011/Ribociclib; 0.01 µM): 0.504 GR
- GR value (LEE011/Ribociclib; 0.03162 µM): 0.395 GR
- GR value (LEE011/Ribociclib; 0.1 µM): 0.287 GR
- GR value (LEE011/Ribociclib; 0.3162 µM): 0.248 GR
- GR value (LEE011/Ribociclib; 1 µM): 0.264 GR
- GR value (LEE011/Ribociclib; 3.162 µM): 0.278 GR
- GR value (LEE011/Ribociclib; 10 µM): 0.222 GR
- GR value ([2]; 0.0001 µM): 1.06 GR
- GR value ([2]; 0.0003162 µM): 1.04 GR
- GR value ([2]; 0.001 µM): 1.18 GR
- GR value ([2]; 0.003162 µM): 1.2 GR
- GR value ([2]; 0.01 µM): 0.935 GR
- GR value ([2]; 0.03162 µM): -0.112 GR
- GR value ([2]; 0.1 µM): -0.482 GR
- GR value ([2]; 0.3162 µM): -0.48 GR
- GR value ([2]; 1 µM): -0.484 GR
- GR value ([3]; 0.0003162 µM): 0.995 GR
- GR value ([3]; 0.001 µM): 0.983 GR
- GR value ([3]; 0.003162 µM): 0.933 GR
- GR value ([3]; 0.01 µM): 0.791 GR
- GR value ([3]; 0.03162 µM): 0.498 GR
- GR value ([3]; 0.1 µM): 0.298 GR
- GR value ([3]; 0.3162 µM): 0.17 GR
- GR value ([3]; 1 µM): 0.178 GR
- GR value ([3]; 3.162 µM): 0.121 GR
- GR value (THZ531; 0.0001 µM): 0.975 GR
- GR value (THZ531; 0.0003162 µM): 0.9 GR
- GR value (THZ531; 0.001 µM): 0.875 GR
- GR value (THZ531; 0.003162 µM): 1.05 GR
- GR value (THZ531; 0.01 µM): 0.946 GR
- GR value (THZ531; 0.03162 µM): 0.731 GR
- GR value (THZ531; 0.1 µM): 0.0348 GR
- GR value (THZ531; 0.3162 µM): -0.33 GR
- GR value (THZ531; 1 µM): -0.343 GR
- GR value (Flavopiridol [4]; 0.0001 µM): 1 GR
- GR value (Flavopiridol [4]; 0.0003162 µM): 1.01 GR
- GR value (Flavopiridol [4]; 0.001 µM): 0.869 GR
- GR value (Flavopiridol [4]; 0.003162 µM): 0.766 GR
- GR value (Flavopiridol [4]; 0.01 µM): 0.972 GR
- GR value (Flavopiridol [4]; 0.03162 µM): 0.821 GR
- GR value (Flavopiridol [4]; 0.1 µM): 0.788 GR
- GR value (Flavopiridol [4]; 0.3162 µM): 0.25 GR
- GR value (Flavopiridol [4]; 1 µM): -0.298 GR
- GR value (YKL-5-124; 0.001 µM): 0.597 GR
- GR value (YKL-5-124; 0.003162 µM): 0.543 GR
- GR value (YKL-5-124; 0.01 µM): 0.372 GR
- GR value (YKL-5-124; 0.03162 µM): 0.396 GR
- GR value (YKL-5-124; 0.1 µM): 0.338 GR
- GR value (YKL-5-124; 0.3162 µM): 0.279 GR
- GR value (YKL-5-124; 1 µM): 0.323 GR
- GR value (YKL-5-124; 3.162 µM): 0.24 GR
- GR value (YKL-5-124; 10 µM): -0.0052 GR
- GR value (BSJ-03-123; 0.001 µM): 0.922 GR
- GR value (BSJ-03-123; 0.003162 µM): 0.789 GR
- GR value (BSJ-03-123; 0.01 µM): 0.714 GR
- GR value (BSJ-03-123; 0.03162 µM): 0.825 GR
- GR value (BSJ-03-123; 0.1 µM): 0.744 GR
- GR value (BSJ-03-123; 0.3162 µM): 0.674 GR
- GR value (BSJ-03-123; 1 µM): 0.61 GR
- GR value (BSJ-03-123; 3.162 µM): 0.545 GR
- GR value (BSJ-03-123; 10 µM): 0.181 GR
- GR value ([5]; 0.001 µM): 0.878 GR
- GR value ([5]; 0.003162 µM): 0.833 GR
- GR value ([5]; 0.01 µM): 0.478 GR
- GR value ([5]; 0.03162 µM): 0.21 GR
- GR value ([5]; 0.1 µM): 0.136 GR
- GR value ([5]; 0.3162 µM): 0.113 GR
- GR value ([5]; 1 µM): 0.086 GR
- GR value ([5]; 3.162 µM): 0.0858 GR
- GR value ([5]; 10 µM): 0.0092 GR
